The results in this text go back to publication PMC11391541, “Target-Directed Dynamic Combinatorial Chemistry Affords Binders of Mycobacterium tuberculosis IspE” (ACS Omega, 2024).

For orientation: solubility means the dissolved amount per volume that the medium holds. The term ΔTm denotes the shift of the melting midpoint relative to a reference.

Converted amounts (≈) assume the structure as drawn.

The nature of series [1]: solubility in M. tuberculosis 7H9 growth medium. The class given is physicochemical. The following applies: Mtb 7H9 growth medium. How it is done:
Prior to biological evaluation of the tdDCC hits, we tested their solubility in a standard buffer as well as in M. tuberculosis 7H9 growth medium. […] Regrettably, with 3.3 μM the least soluble compound is E1, making our most amplified and promising compound unsuitable for biological evaluation. We assessed the solubility in Mtb growth medium given that it is a complex, nutrient-rich environment with a distinct solubility profile. However, the trend continued, only seven hits are soluble at 8 μM or above, the remaining five compounds, including E1, were not eligible for antitubercular activity testing (Table 1).
Determination of in vitro anti-tubercular activity and solubility in 7H9 medium Anti-tubercular tests were performed as previously described .1 In brief, 7H9 complete medium (BD Difco; Becton Dickinson, Maryland,USA) supplemented with 10% OADC (BD), 0.2% glycerol, and 0.05% Tween80 as previously described ,3 was used to culture Mycobacterium tuberculosis (Mtb) strain H37Rv (ATCC 25618) carrying a mCherry -expressing plasmid (pCherry10 ).4 Cultures were harvested at mid-log phase and frozen in aliquots at – 80 °C. Prior to testing aliquots were thawed followed by centrifugation and the pellet was resuspended in 7H9 medium with 10% OADC (without glycerol and Tween80). This was further thoroughly resuspended by passing it through a syringe with a 26 -gauge needle to avoid clumping of the bacteria. 2×10^5 CFU (colony forming units) were then cultured in a total volume of 100 μl culture medium (triplicates) to test the non-precipitating compounds for the anti-tubercular activity at the concentrations indicated. For these assays, 96-well flat clear bottom black polystyrene microplates (Corning® CellBIND®, Merck, New York, USA) wer e used. Each plate had Rifampicin (at 1 μg/ml and 0.1 μg/ml) (National Reference Center, Borstel) as a reference compound. Plates were sealed with an air -permeable membrane (Porvair Sciences, Wrexham, UK) in a 37 °C incubator with mild agitation (TiMix5, Edmund Bühler, Germany). The activity of compounds was determined after 7 days by measuring the bacterial growth as relative light units (RLU) from the fluorescence intensity obtained at an excitation wavelength of 575 nm and an emission wavelength of 635 n m in a microplate reader (Synergy 2, BioTek Instruments, Vermont, USA). Two independent experiments (each in triplicates) were performed, and all values were normalized to untreated control sample (100%) in each experiment.
To obtain information regarding the toxicity of our compounds, their impact on the viability of human cells was investigated. HepG2 cells (2x10^4 cells per well) were seeded in 96 -well, flat-bottomed culture plates in 100 µL culture medium (DMEM containing 10% fetal calve serum, 1% penicillin -streptomycin). Twenty-four hours after seeding the cells, medium was removed and replaced by medium containing test compounds in a final DMSO concentration of 1%. Compounds were tested in duplicates at a single concentration or, for CC50 determination, at 8 concentrations that were prepared via 2 -fold serial dilutions in 1% DMSO/medium. Epirubicin and doxorubicin were used as positive controls in serial dilutions starting from 10 µM, and rifampicin was used as a negative control (at 100 µM). The living cell mass was determined 48 h after treatment with compounds by adding 0.1 volumes of 3 -(4,5-dimethylthiazol-2-yl)-2,5-diphenyltetrazolium bromide (MTT) solution (5 mg/mL sterile PBS) (Sigma, St. Louis, MO) to the wells. After incubating the cells for 30 min at 37 °C (atmosphere containing 5% CO2), medium was removed and MTT crystals were dissolved in 75 µL of a solution containing 10% SDS and 0.5% acetic acid in DMSO. The optical density (OD) of the samples was determined photometrically at 570 nm in a PHERAstar Omega plate reader (BMG labtech, Ortenberg, Germany). To obtain percent viability for each sample, their ODs were related to those of DMSO controls. […]

The target of series [2] is T1, MtbIspE (Mycobacterium tuberculosis, UniProt P9WKG7). The series is described as follows: MtbIspE binding study via MicroScale Thermophoresis (MST). The following applies: MST, 20 μM ligand, 200 nM MtbIspE, triplicate; qualitative. For orientation: In MST a laser heats a spot of the sample, and binding alters the fluorescence response.
In series [3] the target is T1, MtbIspE. As to the kind of experiment: MtbIspE binding study via thermal shift assay. Conditions: read-out: MtbIspE ΔTm at 20 μM.
Series [4] concerns MtbH37Rv. The class given is cell-based, Mycobacterium tuberculosis.
For series [5], the system named is EcTolC. The series is described as follows: microbe, parasite or virus in culture. It is filed as cell-based. The following applies: Escherichia coli, 18 h, LB medium, read-out: EcTolC %inh. At 50 μM.
Series [6] has as its system EcK12. The series is described as follows: E. coli growth inhibition, wild-type strain K12. The class given is cell-based, Escherichia coli. The following applies: Escherichia coli, 18 h, LB medium, read-out: EcK12 %inh. At 50 μM.
Series [7] is described as follows: physchem. The following applies: aqueous with cosolvent or surfactant or cyclodextrin, kinetic from dmso stock.
Series [8] can be described thus: in vitro. The following applies: human, HepG2 CC50, HepG2, 48 h, MTT.
Series [9] relates to HepG2 cells. The following applies: read-out: HepG2 CC50; HepG2, 48 h, MTT.
Series [10] deals with T1, MtbIspE. The series is described as follows: target-directed dynamic combinatorial chemistry (tdDCC), amplification of acylhydrazones in protein-templated vs blank DCL (HPLC-MS/MS, UV 310 nm). The following applies: DCL-3, 24 h, 40 mol % MtbIspE; I1 and K1 integrated as one cluster. It is filed as binding. How it is done: In this study, we used MtbIspE as target protein and the reversible reaction of hydrazides and aldehydes to form dynamic combinatorial libraries (DCLs) of acylhydrazones. […] To accelerate the reaction at neutral pH, aniline was used as nucleophilic catalyst activating the aldehydes.[2],[4],[19] We analyzed the protein’s effect on the DCLs by comparing HPLC-MS/MS data of blank vs protein-templated (PT) experiments. The experiments spanned 3 days, with periodic sampling (every 2 h, followed by two samples per day after 8 h). The addition of NaOH to raise the pH and halt the reactions ensured the sample composition was preserved for analysis.[19] Templated experiments were conducted in duplicate, and the protein was denatured and removed prior to HPLC-MS/MS analysis.
The tdDCC hits and thus potential MtbIspE binders are amplified in the PT experiment compared to the blank experiment. The first step in the analysis of DCLs is the determination of the equilibrium since the amplification factors need to be calculated when the concentration of products is stable. To determine the evolution of the possible products, it is important to measure the characteristic UV absorbance of the acylhydrazones linker (310 nm) during the HPLC-MS/MS run. The resulting UV peaks are assigned to each product using the MS data (Figures S3–S6). The sum of all peak areas is normalized to 100% in order to obtain the respective relative peak area (RPA) for each product. The RPA values represent relative concentrations, determined at each time point of the blank experiment until the values stabilize. […] However, the rest of the compounds are out of range, making a visual inspection difficult. […] The other three libraries behaved in the same way, reaching equilibrium within 24 h and also maintained stable concentrations beyond (Figures S7–S9). To determine the tdDCC hits, we compared the RPAs of the PT experiments to the blanks at 24 h and set a threshold of at least 50% increase in compound formation. In total, 11 acylhydrazones passed our criteria, with amplification factors ranging from […] to 15.5, qualifying them for resynthesis and further evaluation (Figure 3). During the analysis of chromatograms, challenges arose concerning product identification. Some compound peaks were not neatly separated, forcing us to consider them in clusters, others presented two peaks, likely due to isomers, and were considered separately in our evaluation. Lastly, some compounds were detected by MS, but their respective UV signal interfered with the injection peak or was too low for integration (<1%), both in the blank and PT experiments. Consequently, we excluded these compounds from the analysis (Figure S3–S6).
To a well of a 24-well plate, containing Tris buffer (pH 7.0) were added hydrazides (300 μM each, in DMSO), aldehydes (100 μM each, in DMSO), aniline (20 mM, in DMSO), the protein MtbIspE (25 or 40 μM in Tris buffer at pH 7.0), and an additional amount of DMSO to reach a final concentration of 5% in the DCL with 0.5 mL of end-volume. The DCL was allowed to mix on a plate shaker at room temperature and was frequently monitored via LCMS-MS. For analysis, 30 μL of the corresponding library was mixed with 42 μL acetonitrile and 3 μL of NaOH (1 M), the mixture was centrifuged, and the supernatant was used for the analysis. PT experiments were run in duplicates and the protein was omitted for the blank experiments.
High-resolution mass (HRMS) of final products was determined by HPLC-MS/MS using a Thermo Scientific Q Exactive Focus Orbitrap LC -MS/MS system. All compounds were analyzed for purity by LCMS on Acquity UPLC-SQD system from Waters with a gradient elution of Water (Formic acid 0.1%)/Acetonitrile on an HSS - T3 column (2.1 x 50 mm, Waters), 1.8 µm, at 30°C, PDA detection between 240 -320 nm, and MS detection by simultaneous ES+/ES- ionization in a mass range of 150 -800. The flow is set to 0.9 ml/min, and the […]
gradient time is 1.5 min. […]

T1 sequence (P9WKG7 whole entry): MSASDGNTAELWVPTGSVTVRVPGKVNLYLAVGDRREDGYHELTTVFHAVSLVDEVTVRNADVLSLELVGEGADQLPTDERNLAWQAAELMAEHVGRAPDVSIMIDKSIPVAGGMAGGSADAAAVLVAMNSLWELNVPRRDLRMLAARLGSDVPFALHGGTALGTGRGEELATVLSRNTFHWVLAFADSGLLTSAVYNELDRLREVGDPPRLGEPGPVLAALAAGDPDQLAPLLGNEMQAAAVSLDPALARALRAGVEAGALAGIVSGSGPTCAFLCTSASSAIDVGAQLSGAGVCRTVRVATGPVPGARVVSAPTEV

As to `CN1CCN(CC(=O)N/N=C/c2cc(Cl)ccc2O)CC1` [C1, (E)-N′-(5-Chloro-2-hydroxybenzylidene)-2-(4-methylpiperazin-1-yl)acetohydrazide], the solubility in series [1] (M. tuberculosis 7H9 growth medium, plasma or biological fluid, kinetic from dmso stock) came out at 16 µM. In addition, the “MtbIspE binding at 20 μM” value in [2] was “consistently demonstrated binding across all measurements and Yes”. The ΔTm at 20 µM in series [3] was below 0.3 °C. For the same compound, in series [4], the “MtbH37Rv MIC90” value is listed as “no inh. at max. sol”. Besides, the values for the inhibition at 50 µM in series [5] and in series [6] were 17.1 ± 0.1% and below 10%, respectively. Besides, the values for the solubility at 5 min in [7] (solubility 5% DMSO in PBS) and in series [7] (solubility in PBS with 5% DMSO) were above 800 µM and around 1000 µM (≈ 311 µg/mL), respectively. The same compound showed a CC50 in [8] above 50 µM.

With `CC(C)Cc1cc(C(=O)N/N=C/c2cc(Cl)ccc2O)[nH]n1` [D1, (E)-N′-(5-Chloro-2-hydroxybenzylidene)-3-isobutyl-1H-pyrazole-5-carbohydrazide], the “solubility in 7H9” value in series [1] is “insoluble”. The “MtbIspE binding at 20 μM” value in series [2] is listed as “No”. Besides, the ΔTm at 20 µM in series [3] is below 0.3 °C. The results for the inhibition at 50 µM in [5] and in [6] were 28 ± 11% and 11 ± 4%, respectively. Also, the CC50 in series [9] is 7.9 ± 0.8 µM; in series [8], below 10 µM. The compound further came in with a solubility at 5 min in [7] (solubility 5% DMSO in PBS) of 22 ± 9 µM (≈ 7.06 µg/mL).

`O=C(N/N=C/c1cc(Cl)ccc1O)c1cccc(Cl)c1` [K1, (E)-3-Chloro-N′-(5-chloro-2-hydroxybenzylidene)benzohydrazide]: the “Amplification factors (DCL-3)” value in [10] is listed as 2.0. Also, the “solubility in 7H9” value in series [1] is “insoluble”. The “MtbIspE binding at 20 μM” value in series [2] is “consistently demonstrated binding across all measurements and Yes”. Also, in series [3], the ΔTm at 20 µM amounted to 0.7 °C. Further, the inhibition at 50 µM in series [6] was below 10%. For the same compound, the CC50 is 7 ± 3 µM in [9] and below 10 µM in series [8]. This compound also returned a solubility at 5 min in [7] (solubility 5% DMSO in PBS) of 25 ± 4 µM (≈ 7.73 µg/mL).
